Measurements reported in publication PMC8605905 (Oxidative Medicine and Cellular Longevity, 2021).
“Also recorded” adds a separate entry of the source.

Columns and labels:
Format in all cases: cell-based, Human
Aβ-GFP SH-SY5Y cells = test: Western blot in Aβ-GFP SH-SY5Y cells; settings: LM-021 5 μM, immunoblot
Procedure: (§1) To monitor the cAMP-mediated signal transduction pathway, CRE-GFP 293 cells in 6-well plates (1 × 10^6/well) were pretreated with kinase inhibitor H-89 (LC Laboratories, Woburn, MA, USA), KN-62 (Cayman Chemical, Ann Arbor, MI, USA), U0126 (LC Laboratories), or wortmannin (LC Laboratories) (10 μM) for 4 h before forskolin or LM-021 (10 μM) addition for 5 h. GFP fluorescence/protein and total/phosphorylated PKA, CaMKII, ERK, PI3K, and CREB levels were examined. In addition, Aβ-GFP or ∆K280 tauRD-DsRed SH-SY5Y cells were treated with retinoic acid (10 μM) on day 1, followed by the addition of LM-021 (5 or 10 μM) and doxycycline (5 or 2 μg/ml) on day 2, as described. Kinase inhibitors (10 μM) were added on day 6. On day 8, the cells were collected for protein expression analysis of BDNF, BCL2 (BCL2 apoptosis regulator), and BAX (BCL2 associated X, apoptosis regulator), and total/phosphorylated PKA, CaMKII, ERK, PI3K, and CREB. Also, cells were stained with DAPI and assessed for neurite outgrowth as described above.
Total proteins from CRE-GFP 293 and Aβ-GFP, ∆K280 tauRD-DsRed SH-SY5Y cells were extracted using lysis buffer (50 mM Tris-HCl (pH 8.0), 150 mM NaCl, 1 mM EDTA (pH 8.0), 1 mM EGTA (pH 8.0), 0.1% SDS, 0.5% sodium deoxycholate, 1% Triton X-100) containing phosphatase and protease inhibitor cocktails (Sigma-Aldrich). Protein concentrations were measured using a protein assay kit (Bio-Rad, Hercules, CA, USA), and 20 μg of proteins was separated with 10% SDS-PAGE and blotted onto polyvinylidene difluoride (PVDF) membranes (Sigma-Aldrich). After blocking, the membrane blot was incubated with primary antibody against GFP (1 : 500; Santa Cruz Biotechnology, Santa Cruz, CA, USA), PKA (1 : 1000; R&D Systems, Minneapolis, MN, USA), p-PKA (T197) (1 : 1000; Cell Signaling, Danvers, MA, USA), ERK (1 : 500; Cell Signaling), p-ERK (T202/Y204) (1 : 500; Cell Signaling), CaMKII (1 : 1000; Santa Cruz Biotechnology), p-CaMKII (T286) (1 : 1000; Cell Signaling), CREB (1 : 1000; Santa Cruz Biotechnology), p-CREB (S133) (1 : 1000; Millipore, Billerica, MA, USA), BDNF (1 : 500; Santa Cruz Biotechnology), BCL2 (1 : 500; BioVision), BAX (1 : 500; BioVision), GAPDH (glyceraldehyde-3-phosphate dehydrogenase, as a loading control) (1 : 1000; MDBio, Taipei, Taiwan), or β-tubulin (1 : 1000, Sigma-Aldrich, as a loading control). The immune complexes were visualized using horseradish peroxidase-conjugated goat anti-mouse or goat anti-rabbit IgG antibody (1 : 5000, GeneTex, Irvine, CA, USA) and a chemiluminescent substrate (Millipore).

[1] = tested on: ∆K280 tauRD-DsRed SH-SY5Y cells; test: ROS assay (DCFH-DA) in ΔK280 tauRD-DsRed cells; settings: 10 μM
Procedure: On day 1, Aβ-GFP or ∆K280 tauRD-DsRed SH-SY5Y cells were seeded into 96-well plates (2.5 × 10^4/well) and treated with retinoic acid (10 μM; Sigma-Aldrich) to prompt neuronal differentiation. […] On day 8, cells were stained with Hoechst 33342 (0.1 μg/ml; Sigma-Aldrich) for 30 min, and cell images were automatically captured at excitation/emission wavelengths of 482/[…] (GFP fluorescence) or 543/593 nm (DsRed fluorescence) using a high content analysis (HCA) system (Micro Confocal High-Content Imaging System). Image Acquisition and Analysis Software (MetaXpress) (Molecular Devices, Sunnyvale, CA, USA) was used to analyse the images. CellROX Orange (5 μM; Molecular Probes, Eugene, OR, USA) (for Aβ-GFP cells) or dichloro-dihydro-fluorescein diacetate (DCFH-DA, 10 μM; Invitrogen) (for ∆K280 tauRD-DsRed cells) was added to the cells and incubated at 37°C for 30 min. The HCA system was used to measure intracellular ROS at 531/593 nm (CellROX Orange fluorescence) or 482/536 nm (DCFH-DA fluorescence) of excitation/emission wavelengths.

[2] = tested on: ∆K280 tauRD-DsRed SH-SY5Y cells; test: High content analysis of neurite outgrowth in ΔK280 tauRD-DsRed cells; settings: 10 μM
Procedure: On day 1, Aβ-GFP or ∆K280 tauRD-DsRed SH-SY5Y cells were plated into 24-well plates (6 × 10^4/well) followed by addition of retinoic acid. On day 2, cells were treated with coumarin-chalcone derivatives (5 or 10 μM) and with doxycycline (5 or 2 μg/ml) to induce the expression of Aβ-GFP or ∆K280 tauRD-DsRed. On day 8, 4% paraformaldehyde, 0.1% Triton X-100, and 3% BSA were used to fix, permeabilize, and block cells, respectively. Subsequently, the cells were stained with TUBB3 (neuronal class III β-tubulin) primary antibody (1 : 1000; Covance, Princeton, NJ, USA) at 4°C overnight. Goat anti-rabbit Alexa Fluor 555 secondary antibody (1 : 1000; Thermo Fisher Scientific) was then added, followed by a 3 h incubation at room temperature. Following staining nuclei with 4′,-6-diamidino-2-phenylindole (DAPI) (0.1 μg/ml; Sigma-Aldrich), the neurons were imaged by using the HCA system and analysed by using the Neurite Outgrowth Application Module (MetaXpress; Molecular Devices).
as §1

## CN(C)c1ccc(/C=C/C(=O)c2c(O)c3ccccc3oc2=O)cc1 [LM-021, (E)-3-(3-(4-(dimethylamino)phenyl)acryloyl)-4-hydroxy-2H-chromen-2-one]
Aβ-GFP SH-SY5Y cells
  BAX protein levels: reduced
  PKA and ERK protein levels: rescued the reduction in PKA and ERK, although not significantly
  p-CREB, CREB, pro-BDNF, m-BDNF, and BCL2 protein levels: significantly increased
  p-PKA, p-CaMKII, and p-ERK protein levels: significantly upregulated
[1]
  ROS level elevated by ∆K280 tauRD overexpression: effectively reduced
[2]
  Neurite length and branches: successfully ameliorated; also recorded: ameliorated the defects
